Results from patent publication US20160009727A1, “SA[…] PP2C INHIBITORS FOR CANCER TREATMENT” (Lixte Biotechnology, Inc., priority 2013, published 2016).
pIC50: −log10 of the molar value. Where two headings read alike, the source gives them in different places. Blank lines part the entries; values can stand above or below the molecule they belong to.

Key:
U87MG (glioblastoma) = assay: U-87 MG WST assay (cell growth / cell viability); type: cell-based, human; settings: for pIC50: Homo sapiens; for effect on cell growth and cell viability of U87MG: U87MG in vitro, result in words
A549 (lung carcinoma) = assay: A549 WST assay (cell growth / cell viability); type: cell-based, human; settings: for pIC50: Homo sapiens; for effect on cell growth and cell viability of A549: A549 in vitro, result in words
[1] = U-87 MG, U87MG (glioblastoma), summary, FIG. 1 / Discussion, read-out: IC50, inhibition of growth in vitro of U87MG
[2] = first U-87 MG WST assay, FIG. 4, read-out: IC50, first U-87 MG WST assay
[3] = second U-87 MG WST assay, FIG. 5, read-out: IC50, second U-87 MG WST assay
[4] = A549 (lung carcinoma), summary, FIG. 1 / Discussion, read-out: IC50, inhibition of growth in vitro of A549
[5] = first A549 WST assay, FIG. 2, read-out: IC50, first A549 WST assay
[6] = second A549 WST assay, FIG. 3, read-out: IC50, second A549 WST assay
[7] = listed as N-ethyl derivative of sanguinarine

SMILES: c1c2c(cc3c1OCO3)-c1ncc3c4c(ccc3c1CC2)OCO4 [Compound 14, 11,12-Dihydro-2,3,7,8-bismethylenedioxybenzo[c]phenanthridine]
pIC50 (U87MG (glioblastoma); [1]): < 5.00 | pIC50 (U87MG (glioblastoma); [2]): < 5.00 | pIC50 (U87MG (glioblastoma); [3]): < 5.00 | pIC50 (A549 (lung carcinoma); [4]): < 5.00 | pIC50 (A549 (lung carcinoma); [5]): < 5.00 | pIC50 (A549 (lung carcinoma); [6]): < 5.00 | melting point: 246 to 247 °C

SMILES: c1cc2c(cnc3c4cc5c(cc4ccc23)OCO5)c2c1OCO2 [Compound 15, 2,3,7,8-bismethylene-dioxybenzo[c]-phenanthridine]
pIC50 (U87MG (glioblastoma); [1]): < 5.00 | pIC50 (U87MG (glioblastoma); [2]): < 5.00 | pIC50 (U87MG (glioblastoma); [3]): < 5.00 | pIC50 (A549 (lung carcinoma); [4]): < 5.00 | pIC50 (A549 (lung carcinoma); [5]): < 5.00 | pIC50 (A549 (lung carcinoma); [6]): < 5.00 | melting point: 270 to 272 °C

SMILES: CC[n+]1cc2c3c(ccc2c2ccc4cc5c(cc4c21)OCO5)OCO3.[Cl-] [Compound 17, N-Ethyl Derivative of Sanguinarine]
pIC50 (U87MG (glioblastoma); [1]): ~5.48 | pIC50 (U87MG (glioblastoma); [2]): ~5.48 | pIC50 (U87MG (glioblastoma); [3]): ~5.48 | effect on cell growth and cell viability of U87MG (U87MG (glioblastoma)): inhibits cell growth and reduces cell viability | effect on cell growth and cell viability of U87MG (U87MG (glioblastoma); [7]): inhibited cell growth | effect on cell growth and cell viability of A549 (A549 (lung carcinoma)): inhibits cell growth and reduces cell viability | effect on cell growth and cell viability of A549 (A549 (lung carcinoma); [7]): inhibited cell growth | pIC50 (A549 (lung carcinoma); [4]): ~5.80 | pIC50 (A549 (lung carcinoma); [5]): ~5.80 | pIC50 (A549 (lung carcinoma); [6]): ~5.80 | melting point: 258 to 259 °C

pIC50 (U87MG (glioblastoma); [1]): 6.52 | pIC50 (U87MG (glioblastoma); [2]): ~6.52 | pIC50 (U87MG (glioblastoma); [3]): ~6.52 | pIC50 (A549 (lung carcinoma); [4]): 6.70 | pIC50 (A549 (lung carcinoma); [5]): ~6.70 | pIC50 (A549 (lung carcinoma); [6]): ~6.70
SMILES: CC[C@@]1(O)C(=O)OCc2c1cc1n(c2=O)Cc2cc3c(CN(C)C)c(O)ccc3nc2-1 [Topotecan, reference compound]

SMILES: C[n+]1cc2c3c(ccc2c2ccc4cc5c(cc4c21)OCO5)OCO3 [sanguinarine, 13-methyl-[1,3]benzodioxolo[5,6-c]-1,3-dioxolo[4,5-i]phenanthridinium, reference compound]
pIC50 (U87MG (glioblastoma); [1]): 5.70 | pIC50 (U87MG (glioblastoma); [2]): 5.70 | pIC50 (U87MG (glioblastoma); [3]): 5.70 | pIC50 (A549 (lung carcinoma); [4]): 6.10 | pIC50 (A549 (lung carcinoma); [5]): 6.10 | pIC50 (A549 (lung carcinoma); [6]): 6.10
